According to patent US8268962B2, “Molecules for targeting compounds to various selected organs or tissues” (Prosensa Technologies B.V., priority 2007, dated 2012):
Where no end group is shown, it is not given here.

Experiments:
mdx mouse = test: In vivo targeting after subcutaneous injection of Cy5-labeled peptide (fluorescence imaging); conditions: 71 nmol subcutaneously on the back, 48 hours
Method: Peptide LGAQSNF was synthesized with the fluorescent label Cy5. This label can be detected with a high sensitivity by a fluorescence imaging system (NightOWL, Berthold Technologies) after systemic (intravenous or subcutaneous) injection into a mouse. This enables monitoring of the distribution across the different organs of a living mouse after injection of the compound. Of this peptide, 71 nmol was injected subcutaneously on the back of an mdx mouse and after 48 hours a picture was taken with the imaging system.
The mouse is lying on its back, and the back paws and an area on the abdomen were first shaved because the hairs on the skin impair detection of the signal. A clear signal could be detected in the back and front paws and in the tail. The signal in the shaved area on the abdomen is likely from abdominal muscle.

[1] = test system: gastrocnemius (calf muscle) of mdx mice; conditions: intramuscular, 2.5-5 nmol, cross-sections after three days
Method: FAM-labeled peptides QLFTSAS (SEQ ID NO.: 3) (5 nmol injected), LYQDYSL (SEQ ID NO.: 85) (2.5 nmol injected) and LGAQSNF (SEQ ID NO.: 100) (2.5 nmol injected) were analysed. After three days the mice were sacrificed and the muscles were snap frozen. Cross-sections were cut, fixed with acetone and mounted for analysis with a fluorescence microscope. Cross-sections were cut and photographed with a fluorescence microscope (CCD camera).

[2] = test system: gastrocnemius muscle of a healthy mouse; conditions: intramuscular, 5 nmol, after 3 days
Method: Uptake of the FAM-labeled peptides QLFTSAS (SEQ ID NO.: 3) and LGAQSNF (SEQ ID NO.: 100) was also tested on the muscle of a healthy mouse. Of each peptide 5 nmol was injected into the gastrocnemius muscle. After 3 days the mice were sacrified and the amount of staining was assessed. Samples were photographed with an inverted fluorescence microscope.

[3] = test system: myotubes obtained from human KM109 myoblast cultures; test: Uptake of FAM-labeled peptides and conjugate into cultured myotubes (fluorescence microscopy); assay type: cell-based; conditions: tested on human and mouse myotubes, no fixation
Method: Two of the peptides that occurred frequently after selection on both mouse and human myotubes, SPNSIGT and QLFTSAS, were synthesized with a fluorescent label (FAM) and tested for uptake into human and mouse differentiated muscle cells (myotubes). Myotubes were obtained from confluent human KM109 myoblast cultures by 7-14 days of serum deprivation. The culture was subsequently incubated with FAM-labeled peptide and photographed with an inverted fluorescence microscope, without previous fixation.
Peptide QLFTSAS was synthesized with a fluorescent label (FAM) and subsequently conjugated to a 21-mer 2′O-methyl phosphorothioate anti-sense oligonucleotide (AON). Myotubes were obtained from confluent human KM109 myoblast cultures by 7-14 days of serum deprivation. The culture was subsequently incubated with the FAM-labeled conjugate and photographed with an inverted fluorescence microscope, without previous fixation.
Three of the peptides that were found after four rounds of in vivo selection, were synthesized with a fluorescent label (FAM) and tested in cell culture for uptake on human myotubes as described in Example 1.

| Substance | distribution of Cy5-labeled peptide (mdx mouse) | uptake of FAM-labeled peptide into muscle fibers [1] | uptake of FAM-labeled peptide into myofibers of the injected muscle [2] | uptake of FAM-labeled peptide into cultured myotubes [3] |
| --- | --- | --- | --- | --- |
| Cy5-labeled peptide LGAQSNF: Peptide LGAQSNF synthesized with the fluorescent label Cy5 (also: Cy5 label) | taken up by the abdominal muscle and by muscles in the hindlegs, paws and tail |  |  |  |
| LGAQSNF |  | taken up into a large area of muscle fibers and were still visible after 3 days | significant area of uptake |  |
| LYQDYSL |  | taken up into a large area of muscle fibers and were still visible after 3 days |  |  |
| QLFTSAS (also: FAM label) |  | taken up into a large area of muscle fibers and were still visible after 3 days | significant area of uptake | significant uptake |
| SPNSIGT (also: FAM label) [7-mer peptide from in vitro phage selection on myotubes; tested with FAM label] |  |  |  | significant uptake |
